Counter-ions that a name gives are not always drawn.
How the values were obtained:
Format in all cases: cell-based
human S1P3 receptor = human S1P3 receptor (Homo sapiens (Human), UniProt Q99500); experiment: In vitro functional activity (agonism) on human S1P3 receptors, CHO-human-S1P3-Aequorin assay; conditions: aequorin luminescence, CHO K1 cells, 3 independent experiments, read-out: S1P3 pEC50 (converted)
Source text: In Vitro Functional Activity (Agonism) on Human S1P3 Receptors
The CHO-human-S1P3-Aeqorin assay (CHO/Gα16/AEQ/h-S1P3) was established at Solvay Pharmaceuticals. The plasmid DNA coding for the S1P3 receptor (accession number in GenBank NM_005226 was purchased from UMR cDNA resource Centre (Rolla, Mo.). The pcDNA3.1/hS1P3 construct carrying the mitochondrially targeted apo-Aeqorin and Gal6 protein was transfected in CHO K1 cell-line.
(§1) Human-S1P3-Aequorin cells express mitochondrial targeted apo-Aequorin. Cells have to be loaded with coelanterazine, in order to reconstitute active Aequorin. After binding of agonists to the human S1P3 receptor the intracellular calcium concentration increases and binding of calcium to the apo-Aequorin/coelenterazine complex leads to an oxidation reaction of coelenterazine, which results in the production of apo-Aequorin, coelenteramide, CO2 and light ([…]max 469 nm). This luminescent response is dependent on the agonist concentration. Luminescence is measured using the MicroBeta Jet (Perkin Elmer). Agonistic effects of compounds are expressed as pEC50. Compounds were tested at a 10 points half log concentration range, and 3 independent experiments were performed in single point's measurements.

human S1P5 receptor = human S1P5 receptor (Homo sapiens (Human), UniProt Q9H228); experiment: In vitro functional activity (agonism) on human S1P5 receptors, CHO-human-S1P5-Aequorin assay; conditions: aequorin luminescence, CHO cells, 3 independent experiments
human S1P5 receptor, sequence (Q9H228 whole entry): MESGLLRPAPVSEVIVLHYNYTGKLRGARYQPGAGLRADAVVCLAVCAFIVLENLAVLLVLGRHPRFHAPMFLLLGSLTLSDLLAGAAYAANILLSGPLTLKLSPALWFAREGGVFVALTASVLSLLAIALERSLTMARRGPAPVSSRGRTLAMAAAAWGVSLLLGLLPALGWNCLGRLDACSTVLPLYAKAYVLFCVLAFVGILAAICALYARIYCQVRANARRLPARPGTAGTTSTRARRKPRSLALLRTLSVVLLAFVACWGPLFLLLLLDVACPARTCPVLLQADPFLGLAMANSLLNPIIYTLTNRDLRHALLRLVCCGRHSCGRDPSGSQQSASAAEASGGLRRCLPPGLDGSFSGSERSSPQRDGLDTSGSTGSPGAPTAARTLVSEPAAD
Source text: In Vitro Functional Activity (Agonism) on Human S1P5 Receptors
as §1, with “The CHO-human-S1P5-Aeqorin assay was bought from Euroscreen, Brussels (Euroscreen, Technical dossier, Human Lysophospholid S1P5 (Edg8) receptor, DNA clone and CHO AequoScreen™ recombinant cell-line, catalog no: ES-593-A, September 2006). Human-S1P5-Aequorin” for “Human-S1P3-Aequorin”, “S1P5” for “S1P3”

human S1P1 [1] = molecular target: T1, human S1P1 (Homo sapiens (Human), UniProt P21453); experiment: In vitro functional activity (agonism) on human S1P1 receptors (method B), CHO-K1-human S1P1-cAMP assay
T1 sequence (P21453 whole entry): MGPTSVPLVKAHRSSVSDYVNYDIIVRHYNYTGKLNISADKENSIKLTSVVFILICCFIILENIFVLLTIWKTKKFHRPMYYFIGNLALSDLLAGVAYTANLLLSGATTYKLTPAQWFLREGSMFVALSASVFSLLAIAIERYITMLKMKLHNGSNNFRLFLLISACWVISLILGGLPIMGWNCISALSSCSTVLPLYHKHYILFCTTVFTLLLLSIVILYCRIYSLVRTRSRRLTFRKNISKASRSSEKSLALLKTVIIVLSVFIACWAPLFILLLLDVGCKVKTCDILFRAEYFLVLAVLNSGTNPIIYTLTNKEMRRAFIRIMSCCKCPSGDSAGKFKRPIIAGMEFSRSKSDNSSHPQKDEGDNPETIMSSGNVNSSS
Protocol: In Vitro Functional Activity (Agonism) on Human S1P1 Receptors (Method B)
Recombinant CHO-K1 cells expressing human S1P1, grown to mid-log Phase in culture media without antibiotics, detached, centrifuged and re-suspended. For agonist testing cells are mixed with compound and Forskolin and incubated at room temperature. Cells are lyses and cAMP concentration are estimated, according to the manufacturer specification, With the HTRF kit from CIS-BIO International (cat no 62AM2PEB).
Compounds were tested at a 10 points half log concentration range duplicated in 1 experiment.

human S1P1 [2] = molecular target: T1, human S1P1; experiment: In vitro functional activity (agonism) on human S1P1 receptors (method A), CHO-K1-human-S1P1-Aequorin assay; conditions: agonism, determined using method A (aequorin luminescence, CHO-K1 cells), 2 independent experiments; read-out: S1P1^A pEC50 (converted)
Source text: In Vitro Functional Activity (Agonism) on Human S1P1 Receptors (Method A)
as §1, with “Human-S1P1-Aequorin” for “Human-S1P3-Aequorin”, “S1P1” for “S1P3”, “2” for “3”

[3] = agonism, determined using method B (cAMP HTRF with Forskolin, CHO-K1 cells), read-out: S1P1^B pEC50 (converted)

human S1P3 receptor, sequence (Q99500 whole entry): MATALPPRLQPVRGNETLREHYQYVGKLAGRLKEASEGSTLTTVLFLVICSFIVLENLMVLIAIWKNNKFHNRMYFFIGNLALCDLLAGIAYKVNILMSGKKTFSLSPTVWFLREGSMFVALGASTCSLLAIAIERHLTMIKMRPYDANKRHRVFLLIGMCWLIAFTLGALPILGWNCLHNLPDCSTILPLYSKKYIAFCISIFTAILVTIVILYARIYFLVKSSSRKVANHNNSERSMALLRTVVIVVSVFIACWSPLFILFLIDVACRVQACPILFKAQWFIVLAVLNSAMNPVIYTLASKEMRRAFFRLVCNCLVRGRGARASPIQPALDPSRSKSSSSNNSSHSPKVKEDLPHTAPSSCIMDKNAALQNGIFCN

| SMILES | EC50 (human S1P3 receptor) [µM] | S1P5 pEC50 (human S1P5 receptor) | EC50 (human S1P1 [1]) [µM] | EC50 (human S1P1 [1]; [3]) [µM] | EC50 (human S1P1 [2]) [µM] |
| --- | --- | --- | --- | --- | --- |
| O=C(O)CCN1CCC2(CC1)COc1cc(OCc3c(F)cccc3Cl)ccc12 [Compound 38, 3-{6-[(2-Chloro-6-fluorphenyl)methoxy]-2H-spiro[1-benzofuran-3,4′-piperidine]-1′-yl}propanoic acid hydrochloride] | > 10 | 6.7 | > 3.16 |  |  |
| CCc1ccc(Cl)c(COc2ccc3c(c2)OCC32CCN(CCC(=O)O)CC2)c1 [Compound 51, 3-{6-[(2-Chloro-5-ethylphenyl)methoxy]-2H-spiro[1-benzofuran-3,4′-piperidine]-1′-yl}propanoic acid hydrochloride] | > 10 | 6.6 |  | > 3.16 |  |
| Cc1cc(Cl)c(COc2ccc3c(c2)OCC32CCN(CCC(=O)O)CC2)c(Cl)c1 [Compound 59, 3-{6-[(2,6-Dichloro-4-methylphenyl)methoxy]-2H-spiro[1-benzofuran-3,4′-piperidine]-1′-yl)propanoic acid hydrochloride] | > 10 | 7.8 |  | > 3.16 |  |
| CCc1ccc(Cl)c(COc2ccc3c(c2)OCC32CCN(CCC(=O)O)CC2)c1Cl [Compound 68, 3-{6-[(2,6-Dichloro-3-ethylphenyl)methoxy]-2H-spiro[1-benzofuran-3,4′-piperidine]-1′-yl}propanoic acid hydrochloride] | > 10 | 7.5 |  | > 3.16 |  |
| CC(C)c1cccc(Cl)c1COc1ccc2c(c1)OCC21CCN(CCC(=O)O)CC1 [Compound 74, 3-(6-{[2-Chloro-6-(propan-2-yl)phenyl]methoxy}-2H-spiro[1-benzofuran-3,4′-piperidine]-1′-yl)propanoic acid hydrochloride] |  |  | > 3.16 |  |  |
| O=C(O)CCN1CCC2(CC1)COc1cc(OC3CCc4cc(Cl)cc(Cl)c43)ccc12 (stereo not shown) [Compound 79, 3-{6-[(5,7-Dichloro-2,3-dihydro-1H-inden-1-yl)oxy]-2H-spiro[1-benzofuran-3,4′-piperidine]-1′-yl}propanoic acid] | > 10 | 7.2 |  | 2 |  |
| CC(CN1CCC2(CC1)COc1cc(OCc3c(Cl)cccc3Cl)ccc12)C(=O)O (stereo not shown) [Compound 100, 3-{6-[(2,6-Dichlorophenyl)methoxy]-2H-spiro[1-benzofuran-3,4′-piperidine]-1′-yl}-2-methylpropanoic acid hydrochloride] | > 10 | 7 |  | > 3.16 |  |
| O=C(O)CCCN1CCC2(CC1)COc1cc(OCc3c(Cl)cccc3Cl)ccc12 [Compound 128, 4-{6-[(2,6-Dichlorophenyl)methoxy]-2H-spiro[1-benzofuran-3,4′-piperidine]-1′-yl}butanoic acid hydrochloride] | > 10 | 7.6 |  | > 3.16 |  |
| Cc1c(OCc2c(Cl)cccc2Cl)ccc2c1OCC21CCN(CCC(=O)O)CC1 [Compound 129, 3-{6-[(2,6-Dichlorophenyl)methoxy]-7-methyl-2H-spiro[1-benzofuran-3,4′-piperidine]-1′-yl}propanoic acid hydrochloride] | > 10 | 7.5 |  | > 3.16 |  |
| O=C(O)CCN1CCC2(CC1)COc1cc(/C=C/c3c(Cl)cccc3Cl)ccc12 [Compound 160, 3-{6-[(E)-2-(2,6-Dichlorophenyl)ethenyl]-2H-spiro[1-benzofuran-3,4′-piperidine]-1′-yl}propanoic acid hydrochloride] | > 10 | 7.7 |  | > 3.16 |  |
| O=C(O)CCN1CCC2(CC1)COc1cc(/C=C/c3ccccc3F)ccc12 [Compound 171, 3-{6-[(E)-2-(2-Fluorophenyl)ethenyl]-2H-spiro[1-benzofuran-3,4′-piperidine]-1′-yl}propanoic acid hydrochloride] | > 10 | 6.5 |  | > 3.16 |  |
| O=C(O)CCN1CCC2(CC1)COc1cc(C3CC3c3c(Cl)cccc3Cl)ccc12 (stereo not shown) [Compound 178, 3-{6-[2-(2,6-Dichlorophenyl)cyclopropyl]-2H-spiro[1-benzo-furan-3,4′-piperidine]-1′-yl}propanoic acid hydrochloride] | 3.16 | 7.1 |  | > 3.16 |  |
| CCc1ccc(Cl)c(C2CC2c2ccc3c(c2)OCC32CCN(CCC(=O)O)CC2)c1 (stereo not shown) [Compound 182, 3-{6-[2-(2-Chloro-5-ethylphenyl)cyclopropyl]-2H-spiro[1-benzofuran-3,4′-piperidine]-1′-yl}propanoic acid hydrochloride] | > 10 | 7.4 |  | > 3.16 |  |
| O=C(O)CCN1CCC2(CC1)COc1cc(Oc3c(Cl)cccc3Cl)ccc12 [Compound 248, 3-[6-(2,6-Dichlorophenoxy)-2H-spiro[1-benzofuran-3,4′-piperidine]-1′-yl]propanoic acid hydrochloride] | > 10 | 6.5 |  | > 3.16 |  |
| O=C(O)CCN1CCC2(CC1)COc1cc(OCc3c(Cl)cccc3Cl)c(F)cc12 [Compound 289, 3-{6-[(2,6-Dichlorophenyl)methoxy]-5-fluoro-2H-spiro[1-benzofuran-3,4′-piperidine]-1′-yl}propanoic acid] | > 10 | 7.5 |  |  | > 31.6 |
| O=C(O)CCN1CCC2(CC1)COc1cc(S(=O)(=O)Cc3c(Cl)cccc3Cl)ccc12 [Compound 299, 3-(6-{[(2,6-Dichlorophenyl)methane]sulfonyl}-2H-spiro[1-benzofuran-3,4′-piperidine]-1′-yl}propanoic acid hydrochloride] | > 10 | 6 |  |  | > 31.6 |
| O=C(O)CCN1CCC2(CC1)COc1cc(C#Cc3ccccc3)ccc12 [Compound 303, 3-[6-(2-Phenylethynyl)-2H-spiro[1-benzofuran-3,4′-piperidine]-1′-yl]propanoic acid hydrochloride] | > 10 | 7.6 |  |  | > 31.6 |
| O=C(O)CCN1CCCC2(COc3cc(OCc4c(Cl)cccc4C4CC4)ccc32)C1 (stereo not shown) [Compound 317, 3-{6-[(2-Chloro-6-cyclopropylphenyl)methoxy]-2H-spiro[1-benzofuran-3,3′-piperidine]-1′-yl}propanoic acid hydrochloride] | > 10 | 7 |  |  | > 31.6 |
| O=C(O)CCN1CCCC2(COc3cc(OCc4c(Cl)cccc4Cl)ccc32)C1 (stereo not shown) [Compound 321, 3-{6-[(2,6-Dichlorophenyl)methoxy]-2H-spiro[1-benzofuran-3,3′-piperidine]-1′-yl}propanoic acid hydrochloride] | > 10 | 7.1 |  |  | > 31.6 |

Reference: US10179791B2, “Spiro-cyclic amine derivatives as S1P modulators” (AbbVie B.V., priority 2010, dated 2019)
